Test results reported in patent US6900191B1, “1α-Hydroxyvitamin D5, its synthesis and use in cancer prevention” (OncQuest, Inc., priority 1997, dated 2005).
Entries after “also recorded” stand apart in the source; their conditions may differ.

Legend:
[1] = Calcemic activity: plasma calcium levels in vitamin D-deficient rats; format: in vivo, rat; conditions: for increase in plasma calcium over vehicle-treated control group: 0.042 μg/kg per day; for increase in plasma calcium level compared with vehicle-treated rats: higher concentration, 0.25 μg/kg per day; for Plasma calcium: vitamin D-deficient rats, means +/− standard deviation
Experimental: Three-week-old Sprangue-Dawley male rats were obtained from the Holtzman Laboratory, Madison, Wis. Up to three rats were housed together in a polycarbonate cage. The animal cages were kept under yellow light. The rats (eight to 10 per group per concentration of both vitamin D analogues used) were fed a vitamin D-free diet containing 0.47 g/100 g calcium and 0.3 g/100 g phosphorus. After the rats had consumed this diet for 3 weeks, their plasma calcium levels were measured. […] Such rats were administered appropriate vitamin D analogues intragastrically for 14 days. At the end of this period, the plasma calcium levels were again measured. • 3. Induction Of Preneoplastic Lesions In Mammary Glands And Their Prevention By Vitamin D3 and D5 Analogues

[2] = system: 7,12-dimethylbenz[a]anthracene-induced lesions in BALB/c mouse mammary glands; assay: DMBA-induced mammary lesions in mouse mammary gland organ culture; format: cell-based; conditions: for number of glands exhibiting lesions / lesion formation, dependence on concentration: 0.01 μM to 10.0 μM; for No. of glands with lesions/total No. of glands treated: 10 days in culture; for % incidence of lesions: control 60.0
Experimental: Young, virgin BALB/c female mice, 3-4 weeks of age, were obtained from Charles River Laboratories, Wilmington, Mass. The mice were pretreated for 9 days with 17β-estradiol (1 μg in 0.1 mL saline per animal) and progesterone (1 mg in 0.1 mL saline per animal). They were then killed by cervical dislocation, and the thoracic pair of mammary glands was dissected out on silk rafts and incubated for 10 days in Waymouth MB752 medium (Life Technologies, Inc. [GIBCO BRL], Gauthersburg, Md.) containing the following growth-promoting hormones: insulin (5 μg/mL), prolactin (5 μg/mL), aldosterone (1 μg/mL), and hydrocortisone (1 μg/mL).
The carcinogen 7,12-dimethylbenz [a] anthracene (DMBA) at a dose of 2 μg/mL was added to the medium on day 3 for 24 hours to induce mammary lesions. The DMBA-containing medium was then removed, and the mammary glands were incubated for an additional 14 days with medium containing only insulin. […] These structures were termed “mammary lesions.”
The vitamin D analogues (ranging in concentration from 0.01 μM to 10.0 μM) were included in the medium during the first 10 days of the in vitro culture to determine if they lowered the incidence of mammary lesion formation. Throughout the culture period, the glands were maintained at 37° C. in an environment of 95% air and 5% CO2. At the end of the culture period, the glands were fixed in formalin, stained in alum-carmine solution, and evaluated for the presence or absence of mammary lesions. All hormones and chemicals were purchased from the Sigma Chemical Co., St. Louis, Mo. • 4. Immunohistochemistry Of VDRs And TGF-β1
To evaluate the efficacy of the newly synthesized vitamin D5 analogue in preventing mammary lesion formation, we incubated 15 mammary glands per group (135 glands in total) from BALB/c mice with appropriate hormones and exposed the glands to DMBA on day 3 for 24 hours (see “Experimental Equipment and Methods” section). The mammary glands were incubated for 10 days with the vitamin D analogues in concentrations ranging from 0.01 μM to 10.0 μM. The incidence of mammary lesions was calculated for each group and was reported as the ratio of the number of mammary glands showing lesions to the total number of mammary glands at risk.

[3] = system: mammary glands; assay: Toxic effects and structural differentiation of mammary glands in organ culture; format: cell-based, mouse; conditions: for toxicity to the glands, overall: 0.1 μM or 1.0 μM tested; for toxicity to mammary glands, gland structure: 3 days
Experimental: (§1) Normal mouse mammary glands were dissected and incubated with growth-promoting hormones either alone or in the presence of vitamin D analogues for only 3 days. In this experiment, the glands were not exposed to DMBA (see protocol described in the previous section). Instead, the glands were fixed in buffered formalin, and 5-μm-thick sections were prepared for histopathologic evaluations. The sections were mounted on adhesive-coated slides (Superfast: Fisher Scientific Co., Itasca, Ill.), dried at 60° C. for 1 hour, deparaffinized in xylene, […] in a series of alcohol, and finally washed with phosphate-buffered saline (PBS).
To determine the effects of vitamin D analogues on the structural differentiation as well as their toxic effects on mammary glands, we incubated mammary glands with growth-promoting hormones for 3 days either alone or in the presence of 0.1 μM or 1.0 μM vitamin D analogues. The control mammary gland structure was represented by normal alveolar and ductal structures.

[4] = system: VDR; assay: Immunohistochemistry of VDRs in normal mouse mammary glands; format: cell-based; conditions: 3 days
Experimental: as §1
(§2) To block the nonspecific antibody reactions, we treated the tissue sections with 5% dried skim milk for 10 minutes and then incubated them with primary mouse antibody (either against VDR or against TGF-β1, both obtained from BioGenex Laboratories, San Ramon, Calif.) overnight at 0-4° C. […]
(§3) The tissues were counterstained with hematoxylin-eosin, dehydrated through graded series of alcohol and xylene, and finally mounted in Permount (Fisher Scientific Co.). Slides were evaluated for the presence or absence of the VDR or TGF-β1 and for the intensity of staining in the positively strained samples. • 5. […]

[5] = system: ZR 75; assay: Growth of human breast cancer cell line; format: cell-based
[6] = system: T47D; assay: Growth of human breast cancer cell line; format: cell-based
[7] = system: MCF1Oneo; assay: Growth of human breast cancer cell line; format: cell-based
[8] = system: MCF-7; assay: Growth of human breast cancer cell line; format: cell-based
[9] = system: BCA-4; assay: Growth of human breast cancer cell line; format: cell-based
[10] = system: breast cancer cells; assay: Growth of analogue-differentiated breast cancer cells transplanted in athymic mice; format: in vivo, mouse; conditions: cells differentiated with the analogue before transplantation
[11] = system: breast cancer cells; assay: Growth of breast cancer cells in athymic mice injected with the analogue; format: in vivo, mouse; conditions: injection of 8 mg, 3 × week/2 months, athymic mice bearing breast cancer cells
[12] = Stability studies on storage; format: physicochemical; conditions: 20° C.
[13] = system: TGF-β1; assay: Immunohistochemistry of TGF-β1 in normal mouse mammary glands; format: cell-based; conditions: 1.0 μM, 3 days
Experimental: as §1, §2, §3

[14] = system: HL-60 human leukemia cells; conditions: cited from earlier work
[15] = 0.042 μg/kg/day intragastrically for 14 days
[16] = 0.25 μg/kg/day intragastrically for 14 days

For C=C1/C(=C\C=C2/CCC[C@]3(C)[C@@H]([C@H](C)CC[C@@H](CC)C(C)C)CC[C@@H]23)C[C@@H](O)C[C@@H]1O [1α(OH)D5, 1α-Hydroxyvitamin D5], the “increase in plasma calcium over vehicle-treated control group” value [1] was 11%, the “increase in plasma calcium level compared with vehicle-treated rats” value [1] was 50% and the “calcemic effects compared with 1α,25(OH)2D3” value ([1]; overall, both doses) was “overall lower calcemic effects; also recorded: much less calcemic”. The Plasma calcium [1, 15] was 6.0 ± 0.63 mg/dL, the Plasma calcium [1, 16] was 7.9 ± 1.5 mg/dL and the “number of glands exhibiting lesions / lesion formation, dependence on concentration” value [2] was “dose-related decrease”. For the same compound, the “number of glands exhibiting lesions / lesion formation, dependence on concentration” value ([2]; listed as vitamin D5 analogue) was “inhibited the lesion formation in a dose-dependent manner”, the “No. of glands with lesions/total No. of glands treated” value ([2]; 0.01 μM) was 6/16 and the “% incidence of lesions” value ([2]; 0.01 μM) was 37.5%. For the same compound, the “No. of glands with lesions/total No. of glands treated” value ([2]; 0.1 μM) was 4/16, the “% incidence of lesions” value ([2]; 0.1 μM) was 25.0% and the “No. of glands with lesions/total No. of glands treated” value ([2]; 1.0 μM) was 2/14. The “% incidence of lesions” value ([2]; 1.0 μM) was 14.3%, the “percent inhibition of formation of lesions” value ([2]; 10.0 μM) was 100% and the “No. of glands with lesions/total No. of glands treated” value ([2]; 10.0 μM) was 0/15. For the same compound, the “% incidence of lesions” value ([2]; 10.0 μM) was 0.0%, the “toxicity to the glands, overall” value [3] was “did not result in any toxicity” and the “toxicity to the glands, overall” value ([3]; listed as vitamin D5 analogue) was “considerably less toxic than the vitamin D3 analogue”. The “toxicity to mammary glands, gland structure” value (“toxicity to mammary glands” below) ([3]; 1.0 μM) was “retained the healthy structural characteristics”, the “expression of VDRs (staining) in mammary epithelial cells” value ([4]; 0.1 μM (lower concentration)) was “much less” and the “expression of VDRs (staining) in mammary epithelial cells” value ([4]; 1.0 μM) was “induced expression of VDRs”. The “growth of cell line” value [5] was “inhibited growth”, the “growth of cell line” value [6] was “inhibited growth” and the “growth of cell line” value [7] was “inhibited growth”. The “growth of cell line” value [8] was “inhibited growth”, the “growth of cell line” value [9] was “inhibited growth” and the “growth of differentiated cells when transplanted in athymic mice” value [10] was “did not grow”. The “growth of cancer cells in the animals” value [11] was “inhibited growth”, the stability in solution [12] was “one month” and the “storage stability in powder form” value [12] was “a year”.

With C=C1/C(=C\C=C2/CCC[C@]3(C)[C@@H]([C@H](C)CCCC(C)(C)O)CC[C@@H]23)C[C@@H](O)C[C@@H]1O [1α,25(OH)2D3, 1α,25-dihydroxyvitamin D3, reference compound] the “increase in plasma calcium over vehicle-treated control group” value [1] was 50%, the “increase in plasma calcium level compared with vehicle-treated rats” value [1] was 87% and the Plasma calcium [1, 15] was 8.1 ± 1.2 mg/dL. For the same compound, the Plasma calcium ([1]; 0.042 μg/kg/day intragastrically for 14 days, listed as 1α, 25(OH)2D3) was 8.1 ± 1.2 mg/dL, the Plasma calcium [1, 16] was 10.1 ± 1.8 mg/dL and the Plasma calcium ([1]; 0.25 μg/kg/day intragastrically for 14 days, listed as 1α, 25 (OH)2D3) was 10.1 ± 1.8 mg/dL. The “No. of glands with lesions/total No. of glands treated” value ([2]; 0.01 μM) was “two of 14”, the “No. of glands with lesions/total No. of glands treated” value ([2]; 0.01 μM, listed as 1,25α-dihydroxyvitamin D3) was 2/14 and the “% incidence of lesions” value ([2]; 0.01 μM) was 14.3%. The “No. of glands with lesions/total No. of glands treated” value ([2]; 0.1 μM) was 0/15, the “% incidence of lesions” value ([2]; 0.1 μM) was 0.0% and the “No. of glands with lesions/total No. of glands treated” value ([2]; 1.0 μM) was 0/15. The “% incidence of lesions” value ([2]; 1.0 μM) was 0.0%, the “No. of glands with lesions/total No. of glands treated” value ([2]; 10.0 μM) was 0/15 and the “% incidence of lesions” value ([2]; 10.0 μM) was 0.0%. For the same compound, the mammary lesions ([2]; concentrations higher than 0.01 μM) was “no mammary lesions were observed”, the “toxicity to mammary glands” value ([3]; 0.1 μM) was “did not show toxicity” and the “toxicity to mammary glands” value ([3]; 1.0 μM) was “disintegration of ducts and structural toxicity to the glands”. The “concentrations toxic to the glands” value ([3]; 3 days in organ culture) was at least 1000 nM, the “induction of TGF-β1 in mammary epithelial cells” value [13] was “much reduced” and the stability in solution [12] was “one month”. For the same compound, the “storage stability in powder form” value [12] was “a year”.

For C=C1/C(=C/C=C2\CCC[C@]3(C)C([C@H](C)CC#CC(O)(C(F)(F)F)C(F)(F)F)=CC[C@@H]23)C[C@@H](O)C[C@@H]1O [Ro24-5531, 1α, 25-dihydroxy-16-ene-23-yne-26,27-hexafluorocholecalciferol], the “expression of TGF-β1 and its type 2 receptors” value [14] is listed as “induced expression”.
